Reference: ChEMBL document CHEMBL5726724, “Cystathionine-gamma-lyase (CSE) inhibitors” (2019)

Target: Cystathionine gamma-lyase (Homo sapiens, UniProt P32929)
Sequence (P32929 whole entry): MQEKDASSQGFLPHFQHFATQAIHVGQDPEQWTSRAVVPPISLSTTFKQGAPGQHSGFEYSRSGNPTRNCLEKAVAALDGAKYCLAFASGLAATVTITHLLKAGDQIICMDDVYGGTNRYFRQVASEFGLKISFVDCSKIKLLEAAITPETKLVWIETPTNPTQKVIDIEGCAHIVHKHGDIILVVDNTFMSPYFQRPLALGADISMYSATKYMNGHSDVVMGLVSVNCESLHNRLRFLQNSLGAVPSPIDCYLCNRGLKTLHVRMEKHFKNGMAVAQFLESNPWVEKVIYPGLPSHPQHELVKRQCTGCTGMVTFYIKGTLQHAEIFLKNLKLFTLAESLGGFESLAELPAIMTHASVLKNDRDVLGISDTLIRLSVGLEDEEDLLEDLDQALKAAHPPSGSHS

For C#CC[C@@H](N)C(=O)O, the IC50 was greater than 100 µM.
For C#CC[C@H](N)c1noc(=O)[nH]1, the IC50 was less than 25 µM.
With C#CC[C@H](N)c1ncn[nH]1 the IC50 was less than 25 µM.
N#CCC(N)C(=O)O (configuration not stated) gave an IC50 of less than 25 µM.
With C#CC[C@H](N)c1nc(N)n[nH]1 the IC50 was greater than 100 µM.
In the case of C#CCC(N)C(=O)O (configuration not stated), the IC50 is reported as less than 25 µM.
With C#CC[C@H](N)c1nc(C(F)(F)F)n[nH]1 the IC50 was greater than 100 µM.
